Laboratory results: US8784782B2 (Senomyx, Inc., priority 2005, dated 2014)
Read-outs that look alike come from different tables or passages of the source.

Columns and labels:
[1] = target: T1, hT1R1/hT1R3 umami receptor expressed in an HEK293 cell line (Homo sapiens, UniProt Q7RTX0+Q7RTX1); test: In vitro hT1R1/hT1R3 umami taste receptor activation assay (FLIPR, dose response); assay type: cell-based
T1 construct: expressed in transfected cells; host or cells: HEK293 cell line derivative, hT1R1/hT1R3-HEK293-Gα15, clone I-17, mifepristone-induced
T1 sequence (Q7RTX1 21-841): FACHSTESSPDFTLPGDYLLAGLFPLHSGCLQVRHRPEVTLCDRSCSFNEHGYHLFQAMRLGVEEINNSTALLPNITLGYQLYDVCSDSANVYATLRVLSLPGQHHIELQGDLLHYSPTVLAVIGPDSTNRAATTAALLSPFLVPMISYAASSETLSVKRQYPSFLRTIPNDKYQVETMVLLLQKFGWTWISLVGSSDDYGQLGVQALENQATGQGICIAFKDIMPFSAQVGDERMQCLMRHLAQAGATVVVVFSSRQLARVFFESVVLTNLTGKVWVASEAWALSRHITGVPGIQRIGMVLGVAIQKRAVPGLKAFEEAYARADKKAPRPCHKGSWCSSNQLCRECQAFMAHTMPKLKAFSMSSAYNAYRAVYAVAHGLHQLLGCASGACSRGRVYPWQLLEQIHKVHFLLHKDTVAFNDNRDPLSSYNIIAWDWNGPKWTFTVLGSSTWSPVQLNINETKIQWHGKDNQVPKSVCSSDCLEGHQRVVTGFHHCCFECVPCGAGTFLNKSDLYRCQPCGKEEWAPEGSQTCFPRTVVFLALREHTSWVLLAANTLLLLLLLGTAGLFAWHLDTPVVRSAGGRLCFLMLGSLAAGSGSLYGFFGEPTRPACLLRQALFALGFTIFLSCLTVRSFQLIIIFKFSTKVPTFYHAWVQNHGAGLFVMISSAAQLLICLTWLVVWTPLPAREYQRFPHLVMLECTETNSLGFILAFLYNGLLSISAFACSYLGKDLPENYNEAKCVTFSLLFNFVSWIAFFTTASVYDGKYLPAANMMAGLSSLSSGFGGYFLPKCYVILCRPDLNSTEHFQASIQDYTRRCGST
T1 sequence (Q7RTX0 21-852): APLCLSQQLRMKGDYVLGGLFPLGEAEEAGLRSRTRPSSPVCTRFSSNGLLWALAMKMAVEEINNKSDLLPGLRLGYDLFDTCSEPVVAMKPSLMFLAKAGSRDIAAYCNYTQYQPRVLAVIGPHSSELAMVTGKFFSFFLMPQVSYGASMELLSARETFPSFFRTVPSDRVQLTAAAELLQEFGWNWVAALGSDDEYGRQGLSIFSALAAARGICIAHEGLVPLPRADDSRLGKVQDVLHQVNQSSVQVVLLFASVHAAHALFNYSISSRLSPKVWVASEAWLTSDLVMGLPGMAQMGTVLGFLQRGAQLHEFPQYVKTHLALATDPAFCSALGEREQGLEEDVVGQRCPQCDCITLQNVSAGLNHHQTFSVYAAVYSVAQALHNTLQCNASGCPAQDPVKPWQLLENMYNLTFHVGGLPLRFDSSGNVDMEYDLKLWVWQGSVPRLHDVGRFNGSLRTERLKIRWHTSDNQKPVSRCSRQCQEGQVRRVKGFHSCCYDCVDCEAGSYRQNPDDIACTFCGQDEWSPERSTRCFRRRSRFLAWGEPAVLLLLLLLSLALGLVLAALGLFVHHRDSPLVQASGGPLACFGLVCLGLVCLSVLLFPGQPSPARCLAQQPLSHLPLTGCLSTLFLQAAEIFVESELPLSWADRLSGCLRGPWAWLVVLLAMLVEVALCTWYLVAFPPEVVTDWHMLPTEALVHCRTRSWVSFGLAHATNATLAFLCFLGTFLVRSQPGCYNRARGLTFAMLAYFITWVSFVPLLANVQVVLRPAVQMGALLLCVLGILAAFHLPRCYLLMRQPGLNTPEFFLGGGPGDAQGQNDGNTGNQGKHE
Protocol: Activity was determined using an automated fluorometric imaging assay on a FLIPR instrument ([…], Molecular Devices, Sunnyvale, Calif.) (designated FLIPR assay). […] After replacement with 25 μl D-PBS, stimulation was performed in the FLIPR instrument and at room temperature by the addition of 25 μl D-PBS supplemented with different stimuli at concentrations corresponding to twice the desired final level. Receptor activity was quantified by determining the maximal fluorescence increases (using a 480 nm excitation and 535 nm emission) after normalization to basal fluorescence intensity measured before stimulation.
Activities were normalized to the response obtained with 60 mM monosodium glutamate, a concentration that elicits maximum receptor response.

[2] = target: T1, hT1R1/hT1R3 umami receptor expressed in an HEK293 cell line; test: Umami taste enhancement activity assay (EC50 ratio vs. MSG, FLIPR); assay type: cell-based
Protocol: A series of measurements of the dose response is run in solutions comprising MSG alone, then a second dose response is run with MSG in combination with predetermined amounts of a candidate compound of Formula (I) at the same time.
Typical compound concentrations tested were 30 μM, 10 μM, 3 μM, 1 μM, 0.3 μM, 0.1 μM and 0.03 μM. The relative efficacy of compounds of Formula (I) at enhancing the receptor was determined by calculating the magnitude of a shift in the EC50 for monosodium glutamate. Enhancement was defined as a ratio (EC50R) corresponding to the EC50 of monosodium glutamate, determined in the absence of the test compound, divided by the EC50 of monosodium glutamate, determined in the presence of the test compound.
Stated alternatively, “EC50 ratio” as compared to MSG is calculated based on the following definitions: EC50 Ratio vs. MSG=EC50 (MSG)/EC50 (MSG+[Compound]) • wherein “[compound]” refers to the concentration of the compound of Formula (I) used to elicit (or enhance or potentiate) the MSG dose response.

[3] = read-out: EC50 for activation of a hT1R1/hT1R3 umami receptor expressed in an HEK293 cell line
[4] = Table B, pyridazines, read-out: Umami EC50
[5] = Table A, triazoles, read-out: Umami EC50

| SMILES | EC50 [1, 3] | EC50 [1, 5] | other results |
| --- | --- | --- | --- |
| c1cncc(CSc2ccc(-c3ccc4c(c3)OCCO4)nn2)c1 [Example B3, 3-(2,3-dihydrobenzo[b][1,4]dioxin-6-yl)-6-(pyridin-3-ylmethylthio)pyridazine] | – | – | EC50 [1, 4]: 8.4 µM |
| Cc1cc(-c2nc(SCCc3ccccn3)n[nH]2)oc1C [Example 8, 2-(2-(5-(4,5-dimethylfuran-2-yl)-1H-1,2,4-triazol-3-ylthio)ethyl)pyridine] | 1.87 µM | – | EC50 ratio (enhanced the effectiveness of monosodium glutamate) ([2]; compound present at 0.1 μM): 2.66 |
| Cc1ccc(-c2ccc(OCc3ccccn3)nn2)c(C)c1 [Example 15, 3-(2,4-Dimethylphenyl)-6-(pyridin-2-ylmethoxy)pyridazine] | 6.9 µM | – | – |
| c1ccc(CSc2nc(-c3cccc4c3OCO4)n[nH]2)nc1 [Example A11, 2-((5-(benzo[d][1,3]dioxol-4-yl)-2H-1,2,4-triazol-3-ylthio)methyl)pyridine] | – | 1.35 µM | – |
| Cc1ccc(-c2cn(CCc3ccccn3)nn2)cc1 [Example 12, 2-(2-(4-p-Tolyl-1H-1,2,3-triazol-1-yl)ethyl)pyridine] | 16.4 µM | – | – |
| Cn1c(Cc2ccccc2)nnc1SCc1ccc(Cl)c(Cl)c1 [Example A23, 3-benzyl-5-(3,4-dichlorobenzylthio)-4-methyl-4H-1,2,4-triazole] | – | 13 µM | – |
| Clc1ccccc1-c1n[nH]c(SCc2ccccn2)n1 [Example A14, 2-((5-(2-chlorophenyl)-2H-1,2,4-triazol-3-ylthio)methyl)pyridine] | – | 2.48 µM | – |
| CCn1c(SCc2cccnc2)nnc1-c1cccc(C)c1 [Example A25, 3-((4-ethyl-5-m-tolyl-4H-1,2,4-triazol-3-ylthio)methyl)pyridine] | – | 13.1 µM | – |
| CSc1ccc(-c2nnn(Cc3ccccn3)n2)cc1 [Example C1, 2-((5-(4-(methylthio)phenyl)-2H-tetrazol-2-yl)methyl)pyridine] | – | – | EC50 ([1]; Table C, tetrazole, read-out: Umami EC50): 5.91 µM |
| COc1ccccc1-c1n[nH]c(SCCc2ccccn2)n1 [Example A22, 2-(2-(5-(2-methoxyphenyl)-2H-1,2,4-triazol-3-ylthio)ethyl)pyridine] | – | 7.38 µM | – |
| Cn1c(Cc2ccccc2)nnc1SCc1ccc(Cl)cc1Cl [Example A24, 3-benzyl-5-(2,4-dichlorobenzylthio)-4-methyl-4H-1,2,4-triazole] | – | 6.05 µM | – |
| COc1ccc(-c2ccc(SCc3ccccn3)nn2)cc1OC [Example B2, 3-(3,4-dimethoxyphenyl)-6-(pyridin-2-ylmethylthio)pyridazine] | – | – | EC50 [1, 4]: 1.7 µM |
| c1ccc(CSc2ccc(-c3ccc4c(c3)OCCO4)nn2)nc1 [Example B1, 3-(2,3-dihydrobenzo[b][1,4]dioxin-yl)-6-(pyridin-2-ylmethylthio)pyridazine] | – | – | EC50 [1, 4]: 0.6 µM |
| Cn1c(Cc2ccsc2)nnc1SCc1ccc(Cl)cc1 [Example A27, 3-(4-chlorobenzylthio)-4-methyl-5-(thiophen-3-ylmethyl)-4H-1,2,4-triazole] | – | 7.92 µM | – |
| CCn1c(SCc2cccnc2)nnc1-c1cc2ccccc2cc1O [Example A26, 3-(4-ethyl-5-(pyridin-3-ylmethylthio)-4H-1,2,4-triazol-3-yl)naphthalen-2-ol] | – | 1.89 µM | – |
| Cc1ccc(-c2cn(Cc3ccccn3)nn2)cc1 [Example 11, 2-((4-p-Tolyl-1H-1,2,3-triazol-1-yl)methyl)pyridine] | 4.66 µM | – | – |
| Cc1ccoc1-c1n[nH]c(SCc2ccccn2)n1 [Example A21, 2-((5-(3-methylfuran-2-yl)-2H-1,2,4-triazol-3-ylthio)methyl)pyridine] | – | 9.41 µM | – |
| Cc1ccc(-c2nnc(NCc3ccccn3)o2)c(C)c1 [Example 16, 5-(2,4-Dimethylphenyl)-N-(pyridin-2-ylmethyl)-1,3,4-oxadiazol-2-amine] | 10.3 µM | – | – |
| Cc1ccc(-c2ccc(SCc3ccccc3)nn2)c(C)c1 [Example 14, 3-(Benzylthio)-6-(2,4-dimethylphenyl)pyridazine] | 2.7 µM | – | – |
| COc1ccc(-c2n[nH]c(SCc3ccccn3)n2)cc1 [Example A6, 2-((5-(4-methoxyphenyl)-2H-1,2,4-triazol-3-ylthio)methyl)pyridine] | – | 0.52 µM | – |
| Cc1cccc(-c2n[nH]c(SCc3ccccn3)n2)c1 [Example A8, 2-((5-m-tolyl-2H-1,2,4-triazol-3-ylthio)methyl)pyridine] | – | 0.94 µM | – |

Further lines, with some results ahead:

| EC50 [1, 3] | EC50 [1, 5] | SMILES | other results |
| --- | --- | --- | --- |
| 0.58 µM | – | Cc1cc(-c2nc(SCc3ccccn3)n[nH]2)oc1C [Example 5, 2-((5-(4,5-dimethylfuran-2-yl)-1H-1,2,4-triazol-3-ylthio)methyl)pyridine] | EC50 ratio (enhanced the effectiveness of monosodium glutamate) ([2]; compound present at 0.1 μM): 4.4 |
| – | 4.08 µM | COc1ccc(-c2n[nH]c(SCc3ccccn3)n2)cc1OC [Example A18, 2-((5-(3,4-dimethoxyphenyl)-2H-1,2,4-triazol-3-ylthio)methyl)pyridine] | Ec50 ratio (vs. MSG) ([2]; Table A, @ 0.3 μM compound): 2.13 |
| 0.49 µM | – | COc1cc(C)ccc1-c1nc(SCc2ccc(C)cn2)n[nH]1 [Example 2, 2-((5-(2-methoxy-4-methylphenyl)-1H-1,2,4-triazol-3-ylthio)methyl)-5-methylpyridine] | – |
| 0.08 µM | – | COc1cc(C)ccc1-c1nc(SCc2ccccn2)n[nH]1 [Example 1, 2-((5-(2-methoxy-4-methylphenyl)-1H-1,2,4-triazol-3-ylthio)methyl)pyridine] | EC50 ratio (enhanced the effectiveness of monosodium glutamate) ([2]; compound present at 0.03 μM): 5.9 |
| 0.02 µM | – | CCc1ccc(-c2nc(SCc3ccccn3)n[nH]2)c(C)c1 [Example 10, 2-((5-(4-Ethyl-2-methylphenyl)-1H-1,2,4-triazol-3-ylthio)methyl)pyridine] | – |
| – | 1.07 µM | COc1ccc(-c2n[nH]c(SCc3ccc(C)cn3)n2)c(OC)c1 [Example A9, 2-((5-(2,4-dimethoxyphenyl)-2H-1,2,4-triazol-3-ylthio)methyl)-5-methylpyridine] | – |
| 1.5 µM | – | Cc1ccc(-c2ccc(SCc3ccccn3)nn2)c(C)c1 [Example 13, 3-(2,4-Dimethylphenyl)-6-(pyridin-2-ylmethylthio)pyridazine] | – |
| 15.2 µM | – | Cc1ccc(-c2ccc(SCc3cccnc3)nn2)c(C)c1 [Example 17] | – |
| 0.05 µM | – | CCc1ccc(-c2nc(SCc3ccccn3)n[nH]2)c(OC)c1 [Example 18, 2-((5-(4-ethyl-2-methoxyphenyl)-1H-1,2,4-triazol-3-ylthio)methyl)pyridine] | – |
